Experiments:
Zmpste24−/− BMSCs = test: BMSC colony-forming assay in vitro; assay type: cell-based, mouse
Description: Bone marrow stromal cells were isolated and cultured according to modified protocol (Enumeration and Expansion of Mouse Mesenchymal Progenitor Cells Using MESENCUILT®, Stemcell Technologies, Canada). Briefly, bone marrow cells were flushed out from femurs and tibias with α-MEM (Invitrogen, Carlsbad, Calif., USA) supplemented with 20% FBS, and plated in petri dishes. Non-adherent cells were removed on day 3 and medium was replaced every 3 days. BMSC colonies were fixed with methanol and stained with crystal violet solution on the indicated day. For magnetic enrichment, CD11b-positive population was removed using a MIDIMACS™ magnetic cell sorting kit (Miltenyi Biotec, Bergisch Gladbach, Germany), following the manufacturer's instructions. Colonies containing more than 50 cells were counted. BMSC colony forming efficiency was calculated as number of colonies formed by […] bone marrow nucleated cells.

[1] = target: T1, rhSIRT1 binding to rhLamin A (Homo sapiens, UniProt Q96EB6); test: Pull-down of rhSIRT1 with rhLamin A in test tube (anti-lamin A immunoprecipitation); settings: in the test tube, co-immunoprecipitation
T1 construct: purchased Diatheva, Italy (rhLamin A)
T1 sequence (Q96EB6 1-747): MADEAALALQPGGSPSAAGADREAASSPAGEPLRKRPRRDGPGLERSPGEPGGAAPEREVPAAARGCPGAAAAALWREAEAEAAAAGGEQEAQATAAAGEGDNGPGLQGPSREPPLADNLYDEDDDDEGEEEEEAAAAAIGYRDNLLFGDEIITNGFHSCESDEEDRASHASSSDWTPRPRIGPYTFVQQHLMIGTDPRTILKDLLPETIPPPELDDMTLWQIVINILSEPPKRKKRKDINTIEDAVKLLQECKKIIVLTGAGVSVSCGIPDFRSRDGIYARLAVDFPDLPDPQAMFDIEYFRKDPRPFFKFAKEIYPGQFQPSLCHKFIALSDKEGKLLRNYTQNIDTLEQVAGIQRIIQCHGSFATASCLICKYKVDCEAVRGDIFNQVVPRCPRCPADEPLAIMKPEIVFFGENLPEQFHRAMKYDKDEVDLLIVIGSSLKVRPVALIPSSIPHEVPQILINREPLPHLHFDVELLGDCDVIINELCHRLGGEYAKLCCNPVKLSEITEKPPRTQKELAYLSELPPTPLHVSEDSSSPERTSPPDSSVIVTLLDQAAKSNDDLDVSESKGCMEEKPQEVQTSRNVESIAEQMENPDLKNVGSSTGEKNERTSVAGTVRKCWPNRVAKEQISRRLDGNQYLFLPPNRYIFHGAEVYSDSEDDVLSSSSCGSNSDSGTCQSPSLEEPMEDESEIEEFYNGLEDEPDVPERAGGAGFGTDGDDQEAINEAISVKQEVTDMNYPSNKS
T1 sequence (P02545 1-664 partner): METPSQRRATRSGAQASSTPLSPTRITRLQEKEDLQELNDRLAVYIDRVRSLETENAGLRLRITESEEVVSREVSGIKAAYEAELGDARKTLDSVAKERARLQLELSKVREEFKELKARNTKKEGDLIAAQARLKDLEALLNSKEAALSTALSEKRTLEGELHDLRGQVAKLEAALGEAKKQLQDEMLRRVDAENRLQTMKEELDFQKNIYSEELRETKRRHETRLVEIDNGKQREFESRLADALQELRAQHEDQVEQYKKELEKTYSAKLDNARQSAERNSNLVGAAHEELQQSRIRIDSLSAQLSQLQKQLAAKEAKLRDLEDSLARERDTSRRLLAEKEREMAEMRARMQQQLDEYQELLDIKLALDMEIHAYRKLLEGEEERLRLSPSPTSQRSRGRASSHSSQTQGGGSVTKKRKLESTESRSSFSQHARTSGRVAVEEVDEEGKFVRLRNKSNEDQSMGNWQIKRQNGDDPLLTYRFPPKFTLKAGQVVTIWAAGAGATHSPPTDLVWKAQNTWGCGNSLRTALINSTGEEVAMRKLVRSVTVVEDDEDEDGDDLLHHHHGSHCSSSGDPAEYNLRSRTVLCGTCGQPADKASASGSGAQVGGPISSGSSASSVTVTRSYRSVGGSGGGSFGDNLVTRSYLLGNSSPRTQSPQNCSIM
Description: (§1) For co-immunoprecipitation, cells were lysed into pre-chilled RIPA buffer containing 300 mM or 500 mM NaCl and protease inhibitors. Primary antibodies or appropriate control IgGs were added to the lysate and incubated for 2 h on a rocking platform at 4° C. before Agarose beads were added and incubated O/N. The beads were washed twice with RIPA buffer, resuspended into Laemmli buffer and boiled, and protein suspension was collected by centrifugation and stored for further analysis.
Consistently, ectopic EGFP-SIRT1 and DsRed-lamin A co-existed in the nuclear interior (FIG. 1D). This interaction seems specific to nuclear SIRT1 as neither cytoplasmic SIRT1 nor mitochondrial SIRT5 was detected in the anti GFP-lamin A immunoprecipitates (FIG. 6C). In addition, SIRT1 physically interacts with lamin A as recombinant human SIRT1 (rhSIRT1) was pulled down by recombinant human lamin A (rhLamin A) in a test tube (FIG. 1E).

[2] = target: T2, FLAG-SIRT1 binding to lamin A (Homo sapiens, UniProt Q96EB6); test: Co-immunoprecipitation of FLAG-SIRT1 and lamin A in HEK293 cells; assay type: cell-based; settings: dose-dependent per FIG. 3D legend
T2 construct: expressed in transfected cells; host or cells: HEK293
T2 sequence (Q96EB6 1-747): T1 sequence (Q96EB6 1-747)
T2 sequence (P02545 1-646 partner limits assumed): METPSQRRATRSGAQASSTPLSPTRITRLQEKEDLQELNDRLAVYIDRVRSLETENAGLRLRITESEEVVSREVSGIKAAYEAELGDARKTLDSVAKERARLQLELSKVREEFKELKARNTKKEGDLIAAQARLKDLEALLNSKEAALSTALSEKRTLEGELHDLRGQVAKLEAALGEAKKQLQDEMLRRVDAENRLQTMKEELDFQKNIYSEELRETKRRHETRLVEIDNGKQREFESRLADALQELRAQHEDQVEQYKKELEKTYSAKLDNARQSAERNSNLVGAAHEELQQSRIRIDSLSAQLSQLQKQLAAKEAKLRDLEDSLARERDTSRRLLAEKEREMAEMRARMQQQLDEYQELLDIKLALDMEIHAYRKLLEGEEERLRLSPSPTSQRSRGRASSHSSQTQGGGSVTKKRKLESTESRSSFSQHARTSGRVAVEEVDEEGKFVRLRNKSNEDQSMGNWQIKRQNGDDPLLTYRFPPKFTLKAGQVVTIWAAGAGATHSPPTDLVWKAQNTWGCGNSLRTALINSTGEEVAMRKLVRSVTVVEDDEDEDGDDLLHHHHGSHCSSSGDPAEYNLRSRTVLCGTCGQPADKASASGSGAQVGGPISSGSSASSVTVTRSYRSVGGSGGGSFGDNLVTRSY
Description: as §1

## Oc1ccc(C=Cc2cc(O)cc(O)c2)cc1 [resveratrol]
Zmpste24−/− BMSCs; Zmpste24−/− BMSCs with SIRT1 knocked down
  rescue effect on colony-forming capacity: attenuated
Zmpste24−/− BMSCs; Zmpste24−/− BMSCs, 2 μM and 10 μM, dose-dependent
  colony-forming capacity: enhanced the colony-forming capacity
[1]
  binding of rhSIRT1 to rhLamin A: enhanced the binding
[2]
  binding of FLAG-SIRT1 to lamin A: enhanced the binding
